Assay results published in the supplement of paper PMC10307832.

Tests used:
Assay in all cases: relative viability (nuclei count vs DMSO), 5 days (fraction); higher = more cells survive
Sulindac = compound: CC1=C(CC(=O)O)c2cc(F)ccc2/C1=C\c1ccc([S+](C)[O-])cc1 [Sulindac]
How it was run: (§1)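 Vehicle-anchored 1536-well plates of lung cancer cell lines, held overnight at 37 °C, were pinned with five library-drug doses (not always all listed) spaced by √10. No medium change followed over the next 5 days, after which the cells were fixed, permeabilised and Hoechst-stained together and imaged at 4×. Nuclei were counted with MetaXpress, and viability is treated-well nuclei over vehicle-well nuclei, taken as a median across plates. Plates passed with control CV below 25% and at least one doubling.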

Staurosporine = compound: CN[C@@H]1C[C@H]2O[C@@](C)([C@@H]1OC)n1c3ccccc3c3c4c(c5c6ccccc6n2c5c31)C(=O)NC4 [Staurosporine]
How it was run: as §1

5-Fluorouracil = compound: O=c1[nH]cc(F)c(=O)[nH]1 [5-Fluorouracil]
How it was run: as §1

[1] = compound: CN[C@@H]1C[C@H]2O[C@@](C)([C@@H]1OC)n1c3ccccc3c3c4c(c5c6ccccc6n2c5c31)C(=O)NC4 [Staurosporine] + Cc1nc(Nc2ncc(C(=O)Nc3c(C)cccc3Cl)s2)cc(N2CCN(CCO)CC2)n1 [Dasatinib] (partner 0.075 µM)
How it was run: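 Relative viability is defined as nuclei in treated wells over nuclei in vehicle wells. Duplicate plates were run and medians reported. Lung cancer cell lines in 1536-well plates were dosed by pin tool one day after seeding, with one drug or with a fixed anchor-drug dose plus five library-drug doses (not always all listed) in √10 steps, and nuclei were counted after 5 days.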

| Cell Line | relative viability (Sulindac; 0.08 µM) | relative viability (Sulindac; 0.253 µM) | relative viability (Sulindac; 0.8 µM) | relative viability (Sulindac; 2.53 µM) | relative viability (Sulindac; 8 µM) | relative viability (Staurosporine; 0.005 µM) | relative viability (Staurosporine; 0.01581 µM) | relative viability (Staurosporine; 0.05 µM) | relative viability (Staurosporine; 0.1581 µM) | relative viability (Staurosporine; 0.5 µM) | relative viability (5-Fluorouracil; 0.02 µM) | relative viability (5-Fluorouracil; 0.2 µM) | relative viability (5-Fluorouracil; 0.6325 µM) | relative viability (5-Fluorouracil; 2 µM) | relative viability ([1]; first compound 0.005 µM) | relative viability ([1]; first compound 0.01581 µM) | relative viability ([1]; first compound 0.05 µM) | relative viability ([1]; first compound 0.1581 µM) | relative viability ([1]; first compound 0.5 µM) |
| --- | --- | --- | --- | --- | --- | --- | --- | --- | --- | --- | --- | --- | --- | --- | --- | --- | --- | --- | --- |
| HCC-78 | 1.14 | 0.958 | 0.759 | 0.913 | 0.961 | 0.88 | 0.666 | 0.586 | 0.363 | 0.353 | 0.896 | 1.13 | 0.603 | 0.404 | 0.357 | 0.295 | 0.339 | 0.26 | 0.264 |
| HCC-366 | 1.2 | 1.08 | 0.757 | 1 | 1.08 | 1.05 |  | 0.911 | 0.15 | 0.0345 | 1.03 | 1.02 | 0.687 | 0.138 | 0.981 |  | 0.22 | 0.0316 | 0.022 |
| HCC-827 | 0.99 | 1.09 | 0.97 | 0.957 | 1.09 | 1.03 | 0.701 | 0.723 | 0.48 | 0.36 | 0.855 | 1.01 | 0.667 | 0.469 | 0.391 | 0.423 | 0.372 | 0.319 | 0.305 |
| HOP-62 | 1.17 | 1.13 | 0.926 | 1.13 | 1.09 | 0.83 | 0.298 | 0.183 | 0.138 | 0.109 | 1.03 | 1 | 0.971 | 0.877 | 0.343 | 0.164 | 0.109 | 0.124 | 0.0982 |
| IA-LM | 0.835 | 1.07 |  | 1.02 | 1.01 | 0.46 | 0.177 | 0.17 | 0.107 | 0.0831 | 0.939 | 0.519 | 0.295 | 0.241 |  |  |  |  |  |
| LC-2-ad | 1.19 | 1.03 | 0.845 | 0.978 | 1.1 | 0.929 | 0.256 | 0.381 | 0.17 | 0.129 | 0.987 | 0.946 | 0.53 | 0.298 | 0.488 | 0.188 | 0.193 | 0.194 | 0.141 |
| LCLC-97TM1 | 1.05 | 1.04 | 0.925 | 0.813 | 1.17 | 1.02 | 0.282 | 0.27 | 0.265 | 0.212 | 0.988 | 1.07 | 0.729 | 0.533 | 0.611 | 0.254 | 0.286 | 0.378 | 0.293 |
| LCLC-103H | 1.08 | 1.09 | 0.902 | 0.955 | 1.06 | 0.973 | 0.336 | 0.393 | 0.233 | 0.234 | 1.05 | 0.976 | 0.889 | 0.577 | 0.307 | 0.108 | 0.113 | 0.134 | 0.103 |
| LK-2 | 1.23 | 1.06 | 0.78 | 0.738 | 1.21 | 1.17 | 1.06 | 0.874 | 0.366 | 0.243 | 1.16 | 0.989 | 0.8 | 0.574 | 0.551 |  | 0.271 | 0.139 | 0.121 |
| LOU-NH91 | 0.989 | 0.982 | 0.944 | 0.922 | 1.11 | 0.921 | 0.603 | 0.613 | 0.294 | 0.275 | 0.99 | 1.1 | 0.734 | 0.39 | 0.36 | 0.285 | 0.299 | 0.286 | 0.203 |
| LU99A | 1.02 | 0.982 | 0.922 | 0.845 | 1.09 | 0.912 | 0.569 | 0.422 | 0.211 | 0.131 | 0.943 | 0.999 | 0.845 | 0.624 | 0.353 | 0.227 | 0.176 | 0.191 | 0.112 |
| LXF-289 | 1.11 | 1.05 | 0.994 | 1.02 | 1.08 | 1.02 | 0.652 | 0.477 | 0.0851 | 0.127 | 0.961 | 0.912 | 0.434 | 0.301 | 0.119 | 0.068 | 0.112 | 0.0474 | 0.0343 |
| NCI-H23 | 1.19 | 0.802 | 0.701 | 0.799 | 1.15 | 0.704 | 0.139 | 0.367 | 0.164 | 0.117 | 1 | 1.13 | 0.601 | 0.387 | 0.833 |  | 0.259 | 0.13 | 0.154 |
| NCI-H322M | 0.951 | 0.921 | 0.869 | 0.903 | 0.989 | 1.13 | 0.491 | 0.58 | 0.387 | 0.344 | 0.954 | 0.923 | 0.791 | 0.651 | 0.365 | 0.401 | 0.324 | 0.277 | 0.273 |
| NCI-H358 | 0.918 | 1.01 | 0.74 | 0.999 | 1.16 | 1.03 | 0.326 | 0.203 | 0.117 | 0.104 | 1 | 1.05 | 0.882 | 0.584 | 0.373 | 0.072 | 0.178 | 0.0752 | 0.0597 |
| NCI-H1299 | 1.13 | 1.09 | 0.908 | 1.05 | 1.08 | 0.815 | 0.491 | 0.284 | 0.207 | 0.137 | 1.1 | 1.05 | 0.955 | 0.703 |  |  |  |  |  |
| NCI-H1648 | 0.953 | 0.793 | 0.561 | 0.923 | 0.942 | 0.807 | 0.281 | 0.244 | 0.324 | 0.274 | 0.922 | 0.871 | 0.56 | 0.354 |  |  |  |  |  |
| NCI-H1703 | 1.11 | 1 | 0.915 | 0.917 | 1.26 | 0.512 | 0.291 | 0.186 | 0.161 | 0.112 | 1.17 | 0.999 | 0.848 | 0.562 |  |  |  |  |  |
